Results reported in paper PMC11997307, “Rat Sarcoma (RAS)-Protein-Targeting Synthetic Cell-Penetrating Peptide as an Anticancer Biomaterial” (Biomaterials Research, 2025).

System: MDA-MB-231 cells
Assay: Tumor colony forming assay
Type: cell-based, human
Conditions: MDA-MB-231, 0, 1, 10, 50, 100 or 200 μM RBP, 5 d, crystal violet
Method: MDA-MB-231 cells were plated in 24-well culture plates at a density of 1 × 10^3 cells per well and incubated for 24 h at 37 °C in a humidified incubator with 5% CO2. […] The cells were fixed with Carnoy’s fixative (75% methanol and 25% acetic acid) for 5 min at room temperature and stained with 0.4% crystal violet for 5 min. After staining, the cells were rinsed with distilled water, and images were taken.

C[C@@H](O)[C@H](NC(=O)[C@H](CO)NC(=O)[C@H](CS)NC(=O)[C@H](CCCCN)NC(=O)CN)C(=O)N[C@@H](CCCNC(=N)N)C(=O)NCC(=O)N[C@@H](CCCNC(=N)N)C(=O)N[C@@H](CCCCN)C(=O)N[C@@H](CS)C(=O)N[C@@H](CS)C(=O)N[C@@H](CCCNC(=N)N)C(=O)N[C@@H](CCCNC(=N)N)C(=O)N[C@@H](CCCCN)C(=O)N[C@@H](CCCCN)C(N)=O [RBP]
colony area: dose-dependent decrease in colony area
